Laboratory results taken from US4254135A, “3-Amino-4-hydroxypyrrolidines” (A. H. Robins Company, Inc., priority 1979, dated 1981).
Structures can show the parent of a compound that is named as a salt.

Test: Antitetrabenazine test (blocking of depressant effects induced in mice by intravenous tetrabenazine), antidepressant activity
Format: in vivo
Details: Mus musculus, ip, compound intraperitoneally, tetrabenazine intravenously

`CCN1C[C@@H](O)[C@H](N(C(=O)c2ccccc2)c2ccccc2)C1` (relative stereo) [Example 29, Trans-N-(1-ethyl-4-hyroxy-3-pyrrolidinyl)-N-phenylbenzamide (E)-2-butenedioate] and `CCN1C[C@@H](O)[C@H](N(C(=O)c2ccc(Cl)cc2)c2ccccc2)C1` (relative stereo) [Example 28, Trans-4-chloro-N-(1-ethyl-4-hydroxy-3-pyrrolindinyl)-N-phenylbenzamide Fumarate] are within 1.5-fold of each other in ED50: 2.7 mg/kg for the first, 2.9 mg/kg for the second.

Compared with `CCN1C[C@@H](N(C(=O)c2ccc(Cl)cc2)c2ccccc2)[C@H](OC(=O)c2ccc(Cl)cc2)C1` (relative stereo) [Example 27, Trans-4-chlorobenzoic Acid Ester with 4-[(4-Chlorobenzoyl)(phenyl)amino]-1-ethyl-3-pyrrolidinol (E)-2-butenedioate (3:4)], `CCN1C[C@@H](O)[C@H](N(C(=O)c2ccccc2)C2CCCCC2)C1` (relative stereo) [Example 50, Trans-4-[(benzoyl)(cyclohexyl)amino]-1-ethyl-3-pyrrolidinol Fumarate [1:1]] is 3.7-fold lower in ED50: 1.1 mg/kg for the first, 0.3 mg/kg for the second.
